{"source": "patent US11891601B2", "about": "“Method to enhance the transcription regulation of SUPT4H on genes containing repetitive nucleotide sequences” (National Yang-Ming University, priority 2018, dated 2024)", "system": "HD-Drosophila expressing mutant HTT97Q", "test": "Rough eye phenotype in HD-Drosophila (Gmr-HTT97Q)", "type": "in vivo, Drosophila melanogaster", "conditions": "10 μM 6CR in media, 4-day-old progenies", "procedure": "The Gmr-ga14-UAS-HTT97Q/cyo line expressing HTT97Q under the control of Gmr-gal4 in compound eyes was provided by MT SU (National Taiwan Normal University, Taipei, Taiwan). Fly stock was maintained and crossed at 25° C. on a standard cornmeal yeast agar medium.\nIn each compound treatment experiment, 15 Gmr-ga14-UAS-HTT97Q/cyo male flies were crossed with 15 Gmr-ga14-UAS-HTT-97Q/cyo females in a vial containing 10 mL of media supplemented with the testing compound at a final concentration of 10 μM 6CR (Sigma) or/and 100 μM Tropolone (Sigma). 6-chloropurine riboside (6CR) is a chemical reagent that inhibits the activity of SUPT4H by preventing the complex formation of SUPT4H/SUPT5H (Patent No.: US2018/0064744A1). Parent flies were removed after 7 days, and 4-day-old progenies carrying one Gmr-ga14-UAS-HTT97Q allele were collected for eye morphology examination. […] In each treatment group, flies were analyzed and normalized with control flies. […]\nPlease refer to FIG. 8. […] After parent fly removal, the 4-day-old progenies carrying one Gmr-ga14-UAS-HTT97Q allele were collected and analyzed for eye morphology. […] 4-day-old progenies as described above were collected and analyzed the levels of mutant HTT by Western blotting. α-tubulin was included and served as a loading control. […]"}
{"smiles": "OC[C@H]1O[C@@H](n2cnc3c(Cl)ncnc32)[C@H](O)[C@@H]1O", "note": "[6-chloropurine riboside (6CR), 6-chloropurine riboside]", "values": [{"measurement": "rescue of rough eye phenotype, 6CR alone", "value": "rescue effect"}]}
